Measured values: ChEMBL document CHEMBL1201862, “PubChem BioAssay data set” (2004)
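Protocol summary: plate cells (96-well), add compound at 5 concentrations, incubate 48 h, interpolate endpoints linearly. GI50 is the concentration that inhibits growth by half.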 Activity calls are given as the source filed them. Rule as the data show it: active = GI50 up to about 1.1 µM and inactive = higher.

What was measured:
Assay in all cases: NCI-60 cell line screen, 48 h
HCT-15 = tested on: HCT-15
MCF7 = tested on: MCF7
SN12C = tested on: SN12C
UO-31 = tested on: UO-31
NCI/ADR-RES = tested on: NCI/ADR-RES
HT-29 = tested on: HT-29
HCT-116 = tested on: HCT-116
NCI-H522 = tested on: NCI-H522
NCI-H460 = tested on: NCI-H460
UACC-62 = tested on: UACC-62
SNB-75 = tested on: SNB-75
RXF 393 = tested on: RXF 393
SK-OV-3 = tested on: SK-OV-3
LOX IMVI = tested on: LOX IMVI
KM12 = tested on: KM12
NCI-H226 = tested on: NCI-H226
OVCAR-5 = tested on: OVCAR-5
RPMI-8226 = tested on: RPMI-8226
SF-295 = tested on: SF-295
CCRF-CEM = tested on: CCRF-CEM

Compound | GI50 (HCT-15) [µM] | GI50 (MCF7) | GI50 (SN12C) | GI50 (UO-31) | GI50 (NCI/ADR-RES) | GI50 (HT-29) | GI50 (HCT-116) | GI50 (NCI-H522) | GI50 (NCI-H460) | GI50 (UACC-62) | GI50 (SNB-75) | GI50 (RXF 393) | GI50 (SK-OV-3) | GI50 (LOX IMVI) | GI50 (KM12) | GI50 (NCI-H226) | GI50 (OVCAR-5) | GI50 (RPMI-8226) | GI50 (SF-295) | GI50 (CCRF-CEM)
Cc1cc(S(=O)(=O)NC2=NCCCN2)c(S)cc1Cl | 43.6 | > 10 µM (inactive) | 49.4 µM (inactive) | 58.9 µM (inactive) | > 100 µM (inactive) | 20.8 µM (inactive) | 31.8 µM (inactive) | 22 µM (inactive) | 39.3 µM (inactive) | 27.9 µM (inactive) | 42.3 µM (inactive) | 66.2 µM (inactive) | 36.6 µM (inactive) | 22.1 µM (inactive) | 37.8 µM (inactive) | 22.3 µM (inactive) | 33 µM (inactive) |  |  | 
Nc1ccc(C(=O)NN2C(=O)[C@H](Cl)C2c2ccc(Cl)cc2)cc1 (stereo partly specified) | 0.646 | 1.17 µM (inactive) | 1.04 µM (active) | 2.07 µM (inactive) | 1.65 µM (inactive) | 0.156 µM (active) | 0.434 µM (active) | 2.03 µM (inactive) | 2.08 µM (inactive) | 1.68 µM (inactive) | 0.223 µM (active) | 2.72 µM (inactive) | 1.88 µM (inactive) |  | 1.5 µM (inactive) | 0.714 µM (active) | 4.2 µM (inactive) | 1.21 µM (inactive) | 4.55 µM (inactive) | 
O=C1CCCCC[C@]12SC[C@H]1CON=C12 | 31.3 | 21.9 µM (inactive) | 23.1 µM (inactive) | 26.9 µM (inactive) | 25.9 µM (inactive) | 38.3 µM (inactive) | 35.2 µM (inactive) | 22.6 µM (inactive) | 39.1 µM (inactive) | 14.5 µM (inactive) |  | 21.1 µM (inactive) | 37.4 µM (inactive) | 35.2 µM (inactive) | 60.3 µM (inactive) | > 100 µM (inactive) | > 100 µM (inactive) | 27.2 µM (inactive) | > 100 µM (inactive) | 21.9 µM (inactive)
Cc1ccc(NC(=O)CC(=O)N2N=C(c3ccccc3)C(/N=N/c3ccc(S(=O)(=O)CCOS(=O)(=O)O)cc3)C2=O)cc1 (stereo unspecified) | > 100 | 65.9 µM (inactive) | > 100 µM (inactive) | > 100 µM (inactive) | > 100 µM (inactive) | > 100 µM (inactive) | 57.9 µM (inactive) | 58.6 µM (inactive) | > 100 µM (inactive) |  | > 100 µM (inactive) | > 100 µM (inactive) |  | > 100 µM (inactive) | 86.3 µM (inactive) | > 100 µM (inactive) | > 100 µM (inactive) | > 100 µM (inactive) | > 100 µM (inactive) | > 100 µM (inactive)
COC(=O)c1c(O)ccc2c1c1c(n2Cc2cccc(C)c2)C(=O)c2ccccc2C1 | 19.7 | 27.9 µM (inactive) | 12.9 µM (inactive) | > 75 µM (inactive) | 15.5 µM (inactive) | 10.3 µM (inactive) | 7.85 µM (inactive) |  | 19.4 µM (inactive) | 32.6 µM (inactive) |  | 11.9 µM (inactive) | > 75 µM (inactive) | 19.8 µM (inactive) |  | 19.7 µM (inactive) | 22 µM (inactive) | 12 µM (inactive) | 24.9 µM (inactive) | 12.4 µM (inactive)
CC1(C)C(=O)c2ccccc2OC1N1CCN(C2Oc3ccccc3C(=O)C2(C)C)CC1 (stereo unspecified) | > 100 | > 100 µM (inactive) | > 100 µM (inactive) | > 100 µM (inactive) | > 100 µM (inactive) | > 100 µM (inactive) | 82.4 µM (inactive) | > 100 µM (inactive) | > 100 µM (inactive) | 82.6 µM (inactive) | 28 µM (inactive) | 48.1 µM (inactive) | > 100 µM (inactive) | > 100 µM (inactive) | > 100 µM (inactive) | > 100 µM (inactive) | > 100 µM (inactive) | > 100 µM (inactive) |  | > 100 µM (inactive)
c1ccc(/N=C2\S/C(=N\C3CCCCC3)N(C3CCCCC3)\C2=N/c2ccccc2)cc1 | > 100 | > 100 µM (inactive) | > 100 µM (inactive) | > 100 µM (inactive) | > 100 µM (inactive) | > 100 µM (inactive) | > 100 µM (inactive) | > 100 µM (inactive) | > 100 µM (inactive) | > 100 µM (inactive) | > 100 µM (inactive) | > 100 µM (inactive) | > 100 µM (inactive) |  | > 100 µM (inactive) | > 100 µM (inactive) | > 100 µM (inactive) | > 100 µM (inactive) | > 100 µM (inactive) | > 100 µM (inactive)
Cc1cccc2nc3c(C(=O)NCCN(C)C)cccc3cc12 | 2.33 | 2.2 µM (inactive) | 1.19 µM (inactive) | 1.27 µM (inactive) | 1.95 µM (inactive) | 0.791 µM (active) | 0.668 µM (active) |  | 0.705 µM (active) | 1.68 µM (inactive) | 2.25 µM (inactive) | 1.45 µM (inactive) | 2.58 µM (inactive) | 1.26 µM (inactive) | 2.29 µM (inactive) | 1.07 µM (active) | 2.27 µM (inactive) | 0.789 µM (active) | 1.51 µM (inactive) | 1.25 µM (inactive)
